Measurements as given in patent publication US20020028953A1, “Process for preparing 6-(4-chlorophenyl)-2,2-dimethyl-7-phenyl-2,3-dihydro-1H-pyrrolizin-5-yl-acetic acid” (Merckle GmbH, priority 2000, published 2002).
Where two headings read alike, the source gives them in different places.

Tests used:
[1] = stability of the solid form on drying, storage and aging; type: physicochemical
[2] = target: cyclooxygenase (CO) and lipoxygenase (LO); assay: inhibitory action on the enzymes cyclooxygenase (CO) and lipoxygenase (LO); type: biochemical
analgesic action = conditions: result in words

Row | SMILES | chemical stability / oxidative decomposition [1] | IC50LO/IC50CO ([2]; ratio of IC50 lipoxygenase to IC50 cyclooxygenase) | cyclooxygenase and/or lipoxygenase inhibitor ([2]; result in words) | analgesic action (analgesic action) | chemical stability / oxidative decomposition ([1]; listed as Polymorph A) | stability on drying and storage ([1]; solvates release solvent at room temperature)
1 | CC1(C)Cc2c(-c3ccccc3)c(-c3ccc(Cl)cc3)c(CC(=O)O)n2C1 [amorphous ML 3000] | relatively severe oxidative decomposition | – | – | – | – | –
2 | CC1(C)Cc2c(-c3ccccc3)c(-c3ccc(Cl)cc3)c(CC(=O)O)n2C1 [polymorph A, 6-(4-chlorophenyl)-2,2-dimethyl-7-phenyl-2,3-dihydro-1H-pyrrolizin-5-ylacetic Acid] | – | ~1 | potent | strong | high chemical stability | stable on drying and storage
